Results on twelve compounds are retold here after patent publication US12296053B2, “Nanomaterials comprising triols” (Beam Therapeutics Inc., priority 2022, dated 2025).

Data set [1] in a line: Encapsulation efficiency of LNP preparations (Ribogreen assay; Qubit, unlysed and lysed LNPs). Format: physicochemical. Particulars: LNP preparation with the ionizable lipid, ABE mRNA:sgRNA 1:1, except 7-1, 7-2, 7-6, 7-10 (unlysed and lysed LNPs, Qubit). As to the method:
(§1) Lipid nanoparticle components were dissolved in 100% ethanol at specified lipid component molar ratios. mRNA encoding an adenine base editor and a chemically-modified sgRNA was dissolved at a mass ratio of 1:1 in 50 mM citrate, pH 4.0, resulting in a concentration of NA cargo of approximately 0.1 mg/mL.
(§2) LNP preparations were formulated with molar ratios of 47.5% Ionizable Lipid: 40% Cholesterol: 2.5% PEG2000-DMG: 10% DSPC total lipid to NA molar ratio of 6 to 12.
(§3) LNP preparations were formed by microfluidic mixing of the lipid and NA solutions using Precision Nanosystems NanoAssemblr Ignite series Instruments, according to the manufacturer's protocol.
With the exception of LNPs comprising ionizable lipids 7-1, 7-2, 7-6, and 7-10, RNA concentration and encapsulation efficiency were determined by Ribogreen assay (BioTek Synergy LX plate reader). For LNPs comprising ionizable lipids 7-1, 7-2, 7-6, and 7-10, RNA concentration was determined by Qubit microRNA kit (for siRNA) or HS RNA kit (for mRNA) per manufacturer's instructions, and encapsulation efficiency was determined by measuring unlysed and lysed LNPs.

For data set [2], the system named is ALAS1 target site. As to the kind of experiment: Base editing in liver by LNP-delivered ABE mRNA and sgRNA, targeted deep sequencing. Format: in vivo. The conditions noted are these: LNP with the ionizable lipid, ABE mRNA + sgRNA targeting ALAS1 1:1; tail vein injection, Balb/c mice; 0.05 mg/kg; tissues four to six days post-dose. As to the method: as §1, §2, §3
(§4) A 3:1 ratio of aqueous to organic solvent was maintained during mixing using differential flow rates. After mixing, LNP preparations were collected and diluted in TBS (approximately 7:1 v/v), and further buffer exchange was conducted using dialysis in TBS at 4° C. for 8 to 24 hours against a 20 kDa filter. After this initial dialysis, each individual LNP preparation was characterized via dynamic light scattering (DLS) to measure size and polydispersity. pKa of a subpopulation of LNP preparations was measured via TNS assay.
Male Balb/C mice aged approximately 8-12 weeks were used in the experiments described herein. […]
Age-matched mice were also used to administer vehicle (1×TBS) via tail vein injection as a control. Four to six days post-dose, tissues including liver, spleen, and bone marrow were collected. Base editing was determined by performing targeted deep sequencing analysis at the ALAS1 target site using extracted genomic DNA. Genomic DNA was isolated and fragmented and adapter-ligated using the Nextera DNA Flex Library Prep Kit (Illumina) using the 96-well plate Nextera indexing primers (Illumina), according to the manufacturer's instructions. Library size and concentration was confirmed by Fragment Analyzer (Agilent) and analyzed for whole genome sequencing using an Illumina HiSeq.

Data set [3] is described as follows: LNP hydrodynamic diameter and polydispersity index by dynamic light scattering (DLS). The conditions noted are these: for Diameter (nm): hydrodynamic diameter of the LNP preparation with the ionizable lipid; for PDI: polydispersity index of the LNP preparation with the ionizable lipid. In kind it is physicochemical. As to the method: as §4
DLS-LNP preparation hydrodynamic diameter and polydispersity index (PDI) was measured using high throughput dynamic light scattering (DLS) (DynaPro plate reader II, Wyatt). LNP preparations were diluted 1×PBS to an appropriate concentration and analyzed.

As to `C=CCCCCCC(CCCCCC=C)OC(=O)CCCCCC(=O)OCC(COC(=O)CCC(CCCCC)OC(=O)NCCN1CCCC1)COC(=O)CCC(OCCCC/C=C\CC)OCCCC/C=C\CC` (stereo not drawn) [Compound 7-33, 1-(3-((4,4-bis(((Z)-oct-5-en-1-yl)oxy)butanoyl)oxy)-2-(((4-(((2-(pyrrolidin-1-yl)ethyl)carbamoyl)oxy)nonanoyl)oxy)methyl)propyl) 7-(pentadeca-1,14-dien-8-yl) heptanedioate], the “Encapsulation Efficiency (%)” value in data set [1] is given as 96.7%. Besides, the “% Editing in Liver (0.05 mpk)” value in data set [2] is listed as 6.5%. For the same compound, in data set [3], the “Diameter (nm)” value is 64.85 nm and the PDI was determined as 0.11.

As for `CC/C=C\CCCCOC(CCC(=O)OCC(COC(=O)CCCCCCOC(=O)C(CCCC)CCCCCC)COC(=O)CCC(CCCCCC)OC(=O)OCCCN(CC)CC)OCCCC/C=C\CC` (stereo not drawn) [Compound 7-45, 3-((4,4-bis(((Z)-oct-5-en-1-yl)oxy)butanoyl)oxy)-2-(((7-((2-butyloctanoyl)oxy)heptanoyl)oxy)methyl)propyl 4-(((3-(diethylamino)propoxy)carbonyl)oxy)decanoate], the “Encapsulation Efficiency (%)” value in data set [1] came to 93.4%. In addition, the “% Editing in Liver (0.05 mpk)” value in data set [2] worked out at 3.4%. Besides, in data set [3], the “Diameter (nm)” value is on record as 81.8 nm and the PDI is listed as 0.13.

On to `CC/C=C\CCCCOC(CCC(=O)OCC(COC(=O)CCCCC(=O)OCCC(CCCCCC)CCCCCC)COC(=O)CCC(CCCCCC)OC(=O)NCCN1CCCC1)OCCCC/C=C\CC` (stereo not drawn) [Compound 7-16, 3-((4,4-bis(((Z)-oct-5-en-1-yl)oxy)butanoyl)oxy)-2-(((4-(((2-(pyrrolidin-1-yl)ethyl)carbamoyl)oxy)decanoyl)oxy)methyl)propyl (3-hexylnonyl) adipate], for which, in data set [1], the “Encapsulation Efficiency (%)” value is listed as 98.0%. Further, the “% Editing in Liver (0.05 mpk)” value in data set [2] is given as 0.7%. In data set [3], the “Diameter (nm)” value worked out at 52.55 nm and the PDI amounted to 0.05.

Regarding `CC/C=C\CCCCOC(CCC(=O)OCC(COC(=O)CCCCCCOC(=O)C(CCCC)CCCCCC)COC(=O)CCC(CCCCCC)OC(=O)NCCN(C)C)OCCCC/C=C\CC` (stereo not drawn) [Compound 7-40, 3-((4,4-bis(((Z)-oct-5-en-1-yl)oxy)butanoyl)oxy)-2-(((7-((2-butyloctanoyl)oxy)heptanoyl)oxy)methyl)propyl 4-(((2-(dimethylamino)ethyl)carbamoyl)oxy)decanoate], the “Encapsulation Efficiency (%)” value in data set [1] is recorded as 96.8%. Also, in data set [2], the “% Editing in Liver (0.05 mpk)” value is 1.9%. Also, in data set [3], the “Diameter (nm)” value is listed as 54.1 nm and the PDI was found to be 0.09.

For the compound `C=CCCCCCC(CCCCCC=C)COC(=O)CCCCC(=O)OCC(COC(=O)CCC(CCCCCC)OC(=O)NCCN1CCCC1)COC(=O)CCC(OCCCC/C=C\CC)OCCCC/C=C\CC` (stereo not drawn) [Compound 7-39, 3-((4,4-bis(((Z)-oct-5-en-1-yl)oxy)butanoyl)oxy)-2-(((4-(((2-(pyrrolidin-1-yl)ethyl)carbamoyl)oxy)decanoyl)oxy)methyl)propyl (2-(hept-6-en-1-yl)non-8-en-1-yl) adipate], the “Encapsulation Efficiency (%)” value in data set [1] is reported as 97.4%. In addition, in data set [2], the “% Editing in Liver (0.05 mpk)” value is on record as 1.4%. Further, in data set [3], the “Diameter (nm)” value is reported as 53.4 nm and the PDI is reported as 0.08.

In the case of `CC/C=C\CCCCOC(CCC(=O)OCC(COC(=O)CCC(CCCCC)OC(=O)NCCN1CCCC1)COC(=O)CCC(OCCCC/C=C\CC)OCCCC/C=C\CC)OCCCC/C=C\CC` (stereo not drawn) [Compound 7-37, 2-(((4-(((2-(pyrrolidin-1-yl)ethyl)carbamoyl)oxy)nonanoyl)oxy)methyl)propane-1,3-diyl bis(4,4-bis(((Z)-oct-5-en-1-yl)oxy)butanoate)], the “Encapsulation Efficiency (%)” value in data set [1] was 94.7%. Besides, in data set [2], the “% Editing in Liver (0.05 mpk)” value was found to be 12.0%. Moreover, in data set [3], the “Diameter (nm)” value is given as 66.20 nm and the PDI came to 0.12.

As for `CC/C=C\CCCCOC(CCC(=O)OCC(COC(=O)CCCCCCOC(=O)C(CCCC)CCCCCC)COC(=O)CCC(CCCC)OC(=O)NCCN1CCCC1)OCCCC/C=C\CC` (stereo not drawn) [Compound 7-22, 3-((4,4-bis(((Z)-oct-5-en-1-yl)oxy)butanoyl)oxy)-2-(((7-((2-butyloctanoyl)oxy)heptanoyl)oxy)methyl)propyl 4-(((2-(pyrrolidin-1-yl)ethyl)carbamoyl)oxy)octanoate], in data set [1], the “Encapsulation Efficiency (%)” value is given as 97.3%. Moreover, the “% Editing in Liver (0.05 mpk)” value in data set [2] was found to be 5.6%. Further, in data set [3], the “Diameter (nm)” value was 65.85 nm and the PDI was 0.06.

Consider `CC/C=C\CCCCOC(CCC(=O)OCC(COC(=O)CCCCCCOC(=O)C(CCCC)CCCCCC)COC(=O)CCC(CCCCCC)OC(=O)NCCN1CCCCC1)OCCCC/C=C\CC` (stereo not drawn) [Compound 7-44, 3-((4,4-bis(((Z)-oct-5-en-1-yl)oxy)butanoyl)oxy)-2-(((7-((2-butyloctanoyl)oxy)heptanoyl)oxy)methyl)propyl 4-(((2-(piperidin-1-yl)ethyl)carbamoyl)oxy)decanoate], for which the “Encapsulation Efficiency (%)” value in data set [1] was determined as 89.2%. Besides, the “% Editing in Liver (0.05 mpk)” value in data set [2] is reported as 0.1%. For the same compound, in data set [3], the “Diameter (nm)” value was 68.8 nm and the PDI came to 0.08.

Take `CCCCCCCCOC(CCC(=O)OCC(COC(=O)CCCCCCOC(=O)C(CCCC)CCCCCC)COC(=O)CCC(CCCCCC)OC(=O)NCCN1CCCC1)OCCCCCCCC` (stereo not drawn) [Compound 7-11, 3-((4,4-bis(octyloxy)butanoyl)oxy)-2-(((7-((2-butyloctanoyl)oxy)heptanoyl)oxy)methyl)propyl 4-(((2-(pyrrolidin-1-yl)ethyl)carbamoyl)oxy)decanoate]: the “Encapsulation Efficiency (%)” value in data set [1] is recorded as 99.1%. For the same compound, in data set [2], the “% Editing in Liver (0.05 mpk)” value is listed as 13.2%. In addition, in data set [3], the “Diameter (nm)” value was 68.00 nm and the PDI is on record as 0.10.

With `CC/C=C\CCCCOC(CCC(=O)OCC(COC(=O)CCC(CCCCCC)OC(=O)NCCN1CCCC1)COC(=O)CCC(OCCCC/C=C\CC)OCCCC/C=C\CC)OCCCC/C=C\CC` (stereo not drawn) [Compound 7-38, 2-(((4-(((2-(pyrrolidin-1-yl)ethyl)carbamoyl)oxy)decanoyl)oxy)methyl)propane-1,3-diyl bis(4,4-bis(((Z)-oct-5-en-1-yl)oxy)butanoate)], the “Encapsulation Efficiency (%)” value in data set [1] came out at 99.1%. Moreover, the “% Editing in Liver (0.05 mpk)” value in data set [2] came out at 9.4%. Moreover, in data set [3], the “Diameter (nm)” value is 60.25 nm and the PDI stood at 0.06.

For `CC/C=C\CCCCOC(CCC(=O)OCC(COC(=O)CCCCCCOC(=O)C(CCCC)CCCCCC)COC(=O)CCC(CCCCCCCC)OC(=O)NCCN1CCCC1)OCCCC/C=C\CC` (stereo not drawn) [Compound 7-51, 3-((4,4-bis(((Z)-oct-5-en-1-yl)oxy)butanoyl)oxy)-2-(((7-((2-butyloctanoyl)oxy)heptanoyl)oxy)methyl)propyl 4-(((2-(pyrrolidin-1-yl)ethyl)carbamoyl)oxy)dodecanoate], the “Encapsulation Efficiency (%)” value in data set [1] is recorded as 96.6%. For the same compound, the “% Editing in Liver (0.05 mpk)” value in data set [2] is given as 1.0%. In addition, in data set [3], the “Diameter (nm)” value was determined as 51.15 nm and the PDI is on record as 0.08.

With `CC/C=C\CCCCOC(CCC(=O)OCC(COC(=O)CCCCCCOC(=O)C(CCCC)CCCCCC)COC(=O)CCC(CCCCCC)OC(=O)NCCCN(CC)CC)OCCCC/C=C\CC` (stereo not drawn) [Compound 7-42, 3-((4,4-bis(((Z)-oct-5-en-1-yl)oxy)butanoyl)oxy)-2-(((7-((2-butyloctanoyl)oxy)heptanoyl)oxy)methyl)propyl 4-(((3-(diethylamino)propyl)carbamoyl)oxy)decanoate], the “Encapsulation Efficiency (%)” value in data set [1] was determined as 97.2%. Further, the “% Editing in Liver (0.05 mpk)” value in data set [2] came out at 7.3%. For the same compound, in data set [3], the “Diameter (nm)” value came out at 74 nm and the PDI was determined as 0.13.
